Patent US6043285A, “Use of p-aminophenol derivatives for the preparation of pharmaceutical compositions useful in the treatment of neurodegenerative diseases” (Angelini Ricerche S.p.A. Societa'Consortile, priority 1996, dated 2000)
Like-named read-outs stand apart in the source and are kept apart here.

How the values were obtained:
T98G cell line = assay: Toxicity in the T98G cellular system; type: cell-based, human; conditions: concentration above 10 μM not possible
[1] = system: prostaglandin E2 production in J774.2 macrophagic cells; assay: Prostaglandin E2 production in the J774.2 macrophagic cell line stimulated with LPS; type: cell-based
Description: (§1) Parallel experiments were conducted in which the ability of paracetamol and indomethacin to inhibit the production of prostaglandins produced by the glioblastoma T98G cell line or by the J774.2 cellular macrophagic cell line was assessed.
Parallel to the above experiment, J774.2 (2×10^6 /ml) macrophagic cells were stimulated with lipopolysaccharide (LPS) (1 μg/ml) for 12 hours. After 3 washes with physiological solution, the cells were incubated for 45 minutes together with increasing concentrations of paracetamol (0.1-100 μM) or indomethacin (0.01-1 μM). At the end of incubation the supernatants were harvested and the prostaglandin E2 content was measured using the previously described test.

[2] = system: E2 prostaglandins production in T98G cell line; assay: Prostaglandin E2 production in the T98G cell line stimulated with IL-1β; type: cell-based, human; conditions: IL-1β stimulated
Description: (§2) The cells (2×10^6 /ml) were incubated for 48 hours in the presence of increasing concentrations of paracetamol (10-100-500-1000 μM) or indomethacin (0, 1-1-10 μM) both in the presence and in the absence of IL-1β (50 U/ml). On completion of incubation, the culture medium was harvested and the quantity of C3 secreted by the cells in the various conditions was measured. C3 was assayed in a sandwich-type immunoenzymatic test, in which two anti-C3 antibodies of different species were used as well as an antiserum labeled with an alkaline phosphatase specific for one of the two anti-C3 antibodies. The secreted C3 was quantified using a standard curve prepared on the basis of purified C3.
as §1
The test with T98G cells stimulated with IL-1β was conducted as described in the previous Example 1. At the end of incubation the culture medium was harvested and the quantity of E2 prostaglandins present was measured. The prostaglandins were assayed by means of a commercially available immunoenzymatic test ([…]).

[3] = system: interleukin-6 (IL-6) production in T98G cell line; assay: IL-6 production in the T98G cell line stimulated with β-amyloid; type: cell-based, human
Description: The effect of paracetamol on the production of IL-6 was studied using the human cell line glioblastoma T98G. The said line is in fact capable of constitutively producing IL-6 and this synthesis is augmented in the presence of aggregated β-amyloid. Indomethacin was used as the reference drug.
The cells (2×10^6 /ml) were incubated for 48 hours in the presence of increasing concentrations of paracetamol (10-1000 μM) or indomethacin (0.1-10 μM) in the presence of β-amyloid (50 μM) aggregated by incubation at 37° C. for 6 days. At the end of the experiment the culture medium was harvested and the quantity of IL-6 produced in the various conditions was assayed using a commercial immunoenzymatic kit (Biotrak IL-6, Amersham, UK).

[4] = system: factor 3 of the complement (C3) production in T98G cell line; assay: Complement factor C3 secretion in the T98G cell line; type: cell-based, human; conditions: for reducing secretion of factors of the complement (in words): T98G cells
Description: The effect of paracetamol on the production of complement factors has been studied using the human glioblastoma T98G cell line. The said line is in fact capable of constitutively producing factor 3 of the complement (C3) and this synthesis is further increased in the presence of various stimuli such as interleukin-1 beta (IL-1β). Indomethacin has been used as the reference drug.
as §2

[5] = system: patients suffering from Alzheimer's disease; conditions: 44 patients, 6 months, in comparison with placebo; cited from earlier work
[6] = system: onset of the Alzheimer disease; conditions: retrospective, subjects treated for pain and fever; cited from earlier work
[7] = cited from earlier work
[8] = low therapeutic doses from 0.5 to 1 g, 3 or 4 times a day; cited from earlier work
[9] = system: T98G and J774.2 cell lines; assay: Selectivity of action on the nervous system (Tables 1 to 4 as a whole); type: cell-based; conditions: contrary to indomethacin
Description: as §1

peripheral cycloxygenase = conditions: cited from earlier work
[10] = Mus musculus, J774.2, 0.75 h, read-out: Inhibition % of production of prostaglandins
[11] = Homo sapiens, T98G, 48 h, read-out: Inhibition % of production of IL-6
[12] = Homo sapiens, T98G, 48 h, read-out: Inhibition % of production of complement (C3)
[13] = Homo sapiens, T98G, 48 h, IL-1β stimulated (50 U/ml)
[14] = Homo sapiens, T98G, 48 h, not stimulated with IL-1β

COc1ccc2c(c1)c(CC(=O)O)c(C)n2C(=O)c1ccc(Cl)cc1 [Indomethacin]
toxicity in the cellular system used (T98G cell line): because of its toxicity in the cellular system used, it was not possible to increase its concentration above 10 μM
inhibition at 0.01 µM [1, 10]: 35.8%
inhibition at 0.1 µM [1, 10]: 61.1%
inhibition at 1 µM [1, 10]: 87.4%
inhibition at 0.1 µM ([2]; Homo sapiens, 0.1 μM): 99.3%
inhibition at 1 µM ([2]; Homo sapiens, 1 μM): 98.4%
inhibition at 10 µM ([2]; Homo sapiens): 99.1%
inhibiting production of prostaglandins in glial cells (in words) [2]: capable of inhibiting production of prostaglandins in the glial cells of the central nervous system in a significant manner
inhibition at 0.1 µM [3, 11]: 21.1%
inhibition at 1 µM [3, 11]: 17.6%
inhibition at 10 µM [3, 11]: 11.5%
inhibition at 0.1 µM [4, 12]: 26.9%
inhibition at 1 µM [4, 12]: 21.7%
inhibition at 10 µM [4, 12]: 35.1%
inhibition at 10 µM ([4]; Homo sapiens, T98G, read-out: inhibiting activity on secretion of the complement): 35%
reducing secretion of factors of the complement (in words) [4]: active in reducing the secretion of the complement
reducing secretion of factors of the complement (in words) ([4]; listed as indomethacin): capable of reducing secretion of factors of the complement
progression of dementia [5]: notable slowing of the progression of dementia

CC(=O)Nc1ccc(O)cc1 [Paracetamol, N-acetyl-p-aminophenol]
inhibiting activity on production of prostaglandins in macrophages (in words) ([1]; J774.2, LPS stimulated): little inhibiting activity on production of prostaglandins in macrophages
inhibition at 0.1 µM ([1]; Mus musculus, 0.75 h, J774.2, LPS stimulated (1 μg/ml), 45 minutes, 0.1 μM, read-out: Inhibition % of production of prostaglandins): 5.3%
inhibition at 1 µM ([1]; Mus musculus, 0.75 h, J774.2, LPS stimulated (1 μg/ml), 45 minutes, 1 μM, read-out: Inhibition % of production of prostaglandins): 6.4%
inhibition at 10 µM ([1]; Mus musculus, 0.75 h, J774.2, LPS stimulated (1 μg/ml), 45 minutes, 10 μM, read-out: Inhibition % of production of prostaglandins): 12.5%
inhibition at 100 µM ([1]; Mus musculus, 0.75 h, J774.2, LPS stimulated (1 μg/ml), 45 minutes, 100 μM, read-out: Inhibition % of production of prostaglandins): 11.4%
inhibition at 10 µM ([2]; Homo sapiens): 26.7%
inhibition at 100 µM ([2]; Homo sapiens, 100 μM): 88.5%
inhibition at 500 µM ([2]; Homo sapiens, 500 μM): 96.9%
inhibition at 1000 µM ([2]; Homo sapiens, 1000 μM): 99%
inhibiting production of prostaglandins in glial cells (in words) [2]: capable of inhibiting production of prostaglandins in the glial cells of the central nervous system in a significant manner
delay in the onset of the Alzheimer disease [6]: negative
inhibition at 10 µM ([3]; Homo sapiens, T98G, β-amyloid stimulated (50 μM), 48 hours, 10 μM, read-out: Inhibition % of production of IL-6): 11.4%
inhibition at 100 µM ([3]; Homo sapiens, T98G, β-amyloid stimulated (50 μM), 48 hours, 100 μM): 6.7%
inhibition at 500 µM ([3]; Homo sapiens, T98G, β-amyloid stimulated (50 μM), 48 hours, 500 μM): 20.5%
inhibition at 1000 µM ([3]; Homo sapiens, T98G, β-amyloid stimulated (50 μM), 48 hours, 1000 μM): 41.2%
IC50 ([3]; Homo sapiens, T98G, β-amyloid stimulated, read-out: Cl50 for production of IL-6): > 1000 µM
reducing the secretion of IL-6 (in words) ([3]; in the presence of β-amyloid): capable of reducing the secretion of IL-6
plasma concentration ([7]; after 6 hours, oral administration of 1 g): approximately 1.5 mg/l
tissue distribution ([7]; in words, including the brain): distributed evenly throughout the major part of the tissues of the organism, including the brain
absorption ([7]; in words): rapidly absorbed
tissue concentration relative to plasma ([7]; oral administration): substantially the same as the plasma concentration
plasma concentration ([7]; within a few minutes of oral administration of 1 g): approximately 10 mg/l
concentration ([7]; within a few minutes of oral administration of 1 g, read-out: plasma concentration): ~66.2 µM
side effects [8]: no significant side effects
tolerability [8]: well tolerated
inhibition at 100 µM ([4]; Homo sapiens, T98G, 48 h, IL-1β stimulated (50 U/ml), 100 μM): 23.6%
inhibition at 500 µM [4, 13]: 39.8%
inhibition at 1000 µM [4, 13]: 47.5%
inhibition at 10 µM ([4]; Homo sapiens, T98G, 48 h, IL-1β stimulated (50 U/ml), 48 hours, 10 μM, read-out: Inhibition % of production of complement (C3)): 0.1%
inhibition at 500 µM [4, 14]: 37.4%
inhibition at 1000 µM [4, 14]: 60.8%
IC50 ([4]; Homo sapiens, T98G, cells stimulated with interleukin-1 beta, read-out: Cl50 for secretion of C3): ~1000 µM
reducing secretion of factors of the complement (in words) [4]: capable of reducing secretion of factors of the complement
selectivity of action on the nervous system [9]: peculiar selectivity of action on the nervous system
action on peripheral cycloxygenase (peripheral cycloxygenase): absence of action on peripheral cycloxygenase
